As usually defined, the inhibition is how much of the control response was suppressed.

In patent US9375013B2, “Herbicidal composition” (ISHIHARA SANGYO KAISHA, LTD., priority 2013, dated 2016) one finds inhibition data, which are given here for one compound.

Holding throughout (type): in vivo
Assay [1] has as its system persian speedwell (Veronica persica Poiret.). The experiment in a line: Test Example 10: pot soil treatment, growth inhibition of persian speedwell. The note with it: dose 100 g/ha, 21st day after treatment, read-out: Growth inhibition rate (%) of persian speedwell, Measured value.
Assay [2] has as its system ivy-leaved morningglory (Ipomoea hederacea (L.) Jacq.). Put plainly: Test Example 2: pot soil treatment, growth inhibition of ivy-leaved morningglory. To be noted: 22nd day after treatment, read-out: Growth inhibition rate (%) of ivy-leaved morningglory, Measured value. The source says:
(§1) On the 14th day after treatment, the state of growth of the summergrass was visually observed to determine the growth inhibition rate in accordance with the following evaluation standard. The growth inhibition rate (%) (measured value) and the growth inhibition rate (%) (calculated value) calculated by the Colby's formula are shown in Table 1. Growth inhibition rate (%)=0 (equivalent to the non-treated area) to 100 (complete kill) Upland field soil was put into a 1/160,000 ha pot, and seeds of ivy-leaved morningglory (Ipomoea hederacea (L.) Jacq.) were sown. On the next day, predetermined amounts of flazasulfuron and hexazinone were diluted with water (in an amount corresponding to 300 L/ha), and applied for soil treatment by a small sprayer. On the 22nd day after treatment, the state of growth of the ivy-leaved morningglory was visually observed to determine the growth inhibition rate. The growth inhibition rate (%) (measured value) and the growth inhibition rate (%) calculated in the same manner as in Test Example 1 are shown in Table 2.

The test system of assay [3] is shattercane (Sorghum bicolor (L.) Moench.). Put plainly: Test Example 6: pot soil treatment, growth inhibition of shattercane. The note with it: dose 100 g/ha, 22nd day after treatment, read-out: Growth inhibition rate (%) of shattercane, Measured value. The text has this:
On the 14th day after treatment, the state of growth of the summergrass was visually observed to determine the growth inhibition rate in accordance with the following evaluation standard. The growth inhibition rate (%) (measured value) and the growth inhibition rate (%) (calculated value) calculated by the Colby's formula are shown in Table 1. Growth inhibition rate (%)=0 (equivalent to the non-treated area) to 100 (complete kill)
Upland field soil was put into a 1/160,000 ha pot, and seeds of shattercane (Sorghum bicolor (L.) Moench.) were sown. On the next day, predetermined amounts of flazasulfuron and hexazinone were diluted with water (in an amount corresponding to 300 L/ha), and applied for soil treatment by a small sprayer.
On the 22nd day after treatment, the state of growth of the shattercane was visually observed to determine the growth inhibition rate. The growth inhibition rate (%) (measured value) and the growth inhibition rate (%) calculated in the same manner as in Test Example 1 are shown in Table 6.

For assay [4], the system named is velvetleaf (Abutilon theophrasti MEDIC.). The experiment in a line: Test Example 14: pot soil treatment, growth inhibition of velvetleaf. The note with it: dose 200 g/ha, 21st day after treatment, read-out: Growth inhibition rate (%) of velvetleaf, Measured value.
Text: as §1, with “velvetleaf (Abutilon theophrasti MEDIC.)” for “ivy-leaved morningglory (Ipomoea hederacea (L.) Jacq.)”, “21st” for “22nd”, “velvetleaf” for “ivy-leaved morningglory”, “14.” for “2.”

The subject of assay [5] is barnyardgrass (Echinochloa crus-galli L). Put plainly: Test Example 9: pot soil treatment, growth inhibition of barnyardgrass. To be noted: dose 100 g/ha, 21st day after treatment, read-out: Growth inhibition rate (%) of barnyardgrass, Measured value.
Text: as §1, with “barnyardgrass (Echinochloa crus-galli L)” for “ivy-leaved morningglory (Ipomoea hederacea (L.) Jacq.)”, “21st” for “22nd”, “barnyardgrass” for “ivy-leaved morningglory”, “9.” for “2.”

The subject of assay [6] is field bindweed (Convolvulus arvensis L.). Put plainly: Test Example 5: pot soil treatment, growth inhibition of field bindweed. The note with it: dose 300 g/ha, 22nd day after treatment, read-out: Growth inhibition rate (%) of field bindweed, Measured value.
Text: as §1, with “field bindweed (Convolvulus arvensis L.)” for “ivy-leaved morningglory (Ipomoea hederacea (L.) Jacq.)”, “field bindweed” for “ivy-leaved morningglory”, “5.” for “2.”

The structures appear in SMILES notation.

On to `CN(C)c1nc(=O)n(C2CCCCC2)c(=O)n1C` [Hexazinone, hexazinone], for which the inhibition at 100 g/ha in assay [1] was found to be 85%; in assay [2] (dose 100 g/ha), 0%; in assay [3], 0%; in assay [5], 0%. Also, the inhibition at 200 g/ha in assay [2] (dose 200 g/ha) and in assay [4] was 30% in each case. The inhibition at 300 g/ha was 40% in assay [2] (dose 300 g/ha) and 15% in assay [6].
